Reference: patent publication US10370371B2, “Substituted pyrimidine Bmi-1 inhibitors” (PTC Therapeutics, Inc., priority 2013, dated 2019)

test system: Bmi-1 protein; test: Sandwich ELISA Assay (Bmi-1 protein level in HT-1080 cells); type: cell-based
Protocol: Cell Seeding and Compound Treatment (Day 1):
HT-1080 cells were seeded at 8000 cells/well (50 μL) in 96-well tissue culture plates. After the cells became adherent (3-4 hours), 2× diluted stocks of test compounds in 50 μL DMEM containing 1% DMSO (final DMSO concentration was 0.5%) were added and the plates were incubated at 37° C. under 5% CO2 for 40-48 hours.
ELISA Plate First Antibody Preparation (Day 2):
The First Antibody (Millipore Mouse, monoclonal to mouse Bmi-1, clone F6, catalog #05-637) diluted to 2 μg/mL in PBS was added (100 μL) to each well of a Nunc MaxiSorp 96-well ELISA plate. The plate was covered with a plate seal and allowed to stand overnight.
Cell Lysate Preparation (Day 3):
Fresh Lysis buffer (1×) was prepared on the day of the assay as follows: 1 mM EDTA, 150 mM NaCl, 0.5% Triton-X 100, 10 mM NaF, 20 mM B-Glycerophosphate, 1 mM DTT (in PBS, pH 7.2-7.4) and HALT protease inhibitor cocktail (1×) (Pierce #78410).
Lysis Buffer (1×, 40 μL) was added to each well and the plate was shaken for 5-10 minutes on an orbital shaker to allow cell lysis, then diluent (1% BSA in PBS in 0.5% NP40) (100 μL) was added to each well.
A standard curve was prepared at the following Bmi-1 concentrations: 8000, 4000, 2000, 1000, 500, 250, 125 and 0 pg/mL. The Bmi-1 Recombinant Protein Standard (Novus Biologicals PCGF4 Recombinant Protein (P01), catalog # H00000648-P01) used to prepare the standard curve was stored at −80° C. On first thaw, the Recombinant Protein Standard was diluted to 10 μg/μL in Blocking Buffer (1% BSA in PBS; BSA: Fisher Scientific Catalog #1600-100). Aliquots were taken and refrozen at −80° C. The aliquots may be kept at 4° C. and reused after first thaw, but only within 1-2 weeks. The Recombinant Protein Standard contains a GST-fusion tag that appears at approximately 70 Kda on Western Blot.
The prepared ELISA plate was washed 3× with Wash Buffer (0.05% Tween-20 in PBS). The final wash was removed from the plate and the plate was blotted dry. Blocking Buffer (300 μL) (1% BSA in PBS) was added to each well. The plate was covered with a plate seal and incubated at room temperature for 1 hour. The blocked plate was washed 3× with Wash Buffer, then the final wash was removed and the plate was blotted dry. The previously prepared samples and standards were added (100 μL/well) and the plate was covered with a plate seal and incubated at 4° C. overnight.
The prepared ELISA plate was removed from incubation and allowed to stand at room temperature for 30 minutes, then washed and blotted dry. The Second Antibody (Cell Signaling Rabbit anti-Bmi-1, Cat#2830) diluted to 1:600 in Blocking Buffer was added (100 μL) to each well, except as needed for background control wells. The plate was covered with a plate seal and incubated for 1.5 hrs at room temperature.
The ELISA plate was washed and blotted dry as previously described. The Third Antibody (Cell Signaling HRP conjugated anti-rabbit IgG (CellSignaling, Cat#:7074) diluted to 1:300 in Blocking Buffer was added (100 μL) to each well, except as needed for background control wells. The plate was incubated for 1 hr at room temperature.
The plate was washed and blotted dry, then a previously prepared TMB substrate (TMB substrate kit, Pierce catalog #34021) (prepared by mixing kit reagents 1:1) (100 μL) was added per well. The plate was incubated for 20-30 minutes at room temperature in the dark, then Stop Solution (2 M sulfuric acid in water) (50 μL) was added per well. The plates were read at OD450 (experimental) and OD570 (reference).

Structure (SMILES) | EC50 [µM]
CCc1nc2cc(F)c(F)cc2n1-c1cc(N)nc(Nc2ccc(C(F)(F)F)cc2)n1 [Cpd 65, 6-(2-ethyl-5,6-difluoro-1H-benzimidazol-1-yl)-N^2-[4-(trifluoromethyl)phenyl]pyrimidine-2,4-diamine] | 0.01 to 0.1
Nc1cc(-n2c(C3CC3)nc3cc(F)c(F)cc32)nc(Nc2ccc(OC(F)F)cc2)n1 [Cpd 66, 6-(2-cyclopropyl-5,6-difluoro-1H-benzimidazol-1-yl)-N^2-[4-(difluoromethoxy)phenyl]pyrimidine-2,4-diamine] | 0.001 to 0.01
N#Cc1cc(-n2c(C3CC3)nc3cc(F)c(F)cc32)nc(Nc2ccc(C(F)(F)F)cc2)n1 [Cpd 67, 6-(2-cyclopropyl-5,6-difluoro-1H-benzimidazol-1-yl)-2-{[4-(trifluoromethyl)phenyl]amino}pyrimidine-4-carbonitrile] | 0.1 to 3
Cc1nc2cc(F)c(F)cc2n1-c1cc(C#N)nc(Nc2ccc(C(F)(F)F)cc2)n1 [Cpd 68, 6-(5,6-difluoro-2-methyl-1H-benzimidazol-1-yl)-2-{[4-(trifluoromethyl)phenyl]amino}pyrimidine-4-carbonitrile] | 0.1 to 3
Nc1cc(-n2c(C(F)F)nc3ccccc32)nc(Nc2ccc(C(F)(F)F)cc2)n1 [Cpd 69, 6-[2-(difluoromethyl)-1H-benzimidazol-1-yl]-N^2-[4-(trifluoromethyl)phenyl]pyrimidine-2,4-diamine] | 0.01 to 0.1
Nc1cc(-n2c(C(F)F)nc3ccc(F)cc32)nc(Nc2ccc(OC(F)F)cc2)n1 [Cpd 72, N^2-[4-(difluoromethoxy)phenyl]-6-[2-(difluoromethyl)-6-fluoro-1H-benzimidazol-1-yl]pyrimidine-2,4-diamine] | 0.01 to 0.1
NC(=O)c1cccc(Nc2nccc(-c3cnc4ccccn34)n2)c1 [Cpd 75, 3-{[4-(imidazo[1,2-a]pyridin-3-yl)pyrimidin-2-yl]amino}benzamide] | 0.1 to 3
CCc1nc2cc(F)c(F)cc2n1-c1cc(N)nc(Nc2ccc(OC(F)F)cc2)n1 [Cpd 76, N^2-[4-(difluoromethoxy)phenyl]-6-(2-ethyl-5,6-difluoro-1H-benzimidazol-1-yl)pyrimidine-2,4-diamine] | 0.01 to 0.1
Cc1nc2cc(F)c(F)cc2n1-c1cc(N)nc(Nc2ccc(OC(F)F)cc2)n1 [Cpd 77, N^2-[4-(difluoromethoxy)phenyl]-6-(5,6-difluoro-2-methyl-1H-benzimidazol-1-yl)pyrimidine-2,4-diamine] | 0.01 to 0.1
Cc1nn2ccccc2c1-c1cc(N)nc(Nc2ccc(C(F)(F)F)cc2)n1 [Cpd 82, 6-(2-methylpyrazolo[1,5-a]pyridin-3-yl)-N^2-[4-(trifluoromethyl)phenyl]pyrimidine-2,4-diamine] | 0.01 to 0.1
Cc1nc2ccccc2n1-c1cc(N)nc(Nc2ccc(OC(F)F)cc2)n1 [Cpd 83, N^2-[4-(difluoromethoxy)phenyl]-6-(2-methyl-1H-benzimidazol-1-yl)pyrimidine-2,4-diamine] | 0.01 to 0.1
CCc1nc2ccccc2n1-c1cc(N)nc(Nc2ccc(OC(F)F)cc2)n1 [Cpd 84, N^2-[4-(difluoromethoxy)phenyl]-6-(2-ethyl-1H-benzimidazol-1-yl)pyrimidine-2,4-diamine] | 0.01 to 0.1
Nc1cc(-n2c(C3CC3)nc3ccccc32)nc(Nc2ccc(OC(F)F)cc2)n1 [Cpd 85, 6-(2-cyclopropyl-1H-benzimidazol-1-yl)-N^2-[4-(difluoromethoxy)phenyl]pyrimidine-2,4-diamine] | 0.01 to 0.1
Nc1cc(-n2c(C3CC3)nc3cc(Cl)ccc32)nc(Nc2ccc(C(F)(F)F)cc2)n1 [Cpd 86, 6-(5-chloro-2-cyclopropyl-1H-benzimidazol-1-yl)-N^2-[4-(trifluoromethyl)phenyl]pyrimidine-2,4-diamine] | 0.1 to 3
Nc1cc(-n2c(C3CC3)nc3ccc(Cl)cc32)nc(Nc2ccc(C(F)(F)F)cc2)n1 [Cpd 87, 6-(6-chloro-2-cyclopropyl-1H-benzimidazol-1-yl)-N^2-[4-(trifluoromethyl)phenyl]pyrimidine-2,4-diamine] | 0.01 to 0.1
CCc1nn2ccccc2c1-c1cc(N)nc(Nc2ccc(C(F)(F)F)cc2)n1 [Cpd 90, 6-(2-ethylpyrazolo[1,5-a]pyridin-3-yl)-N^2-[4-(trifluoromethyl)phenyl]pyrimidine-2,4-diamine] | 0.01 to 0.1
CCc1nn2ccccc2c1-c1cc(N)nc(Nc2ccc(OC(F)F)cc2)n1 [Cpd 91, N^2-[4-(difluoromethoxy)phenyl]-6-(2-ethylpyrazolo[1,5-a]pyridin-3-yl)pyrimidine-2,4-diamine] | 0.01 to 0.1

Further lines, results first:

EC50 [µM] | Structure (SMILES)
0.01 to 0.1 | Nc1cc(-n2c(C3CC3)nc3cc(Cl)ccc32)nc(Nc2ccc(OC(F)F)cc2)n1 [Cpd 92, 6-(5-chloro-2-cyclopropyl-1H-benzimidazol-1-yl)-N^2-[4-(difluoromethoxy)phenyl]pyrimidine-2,4-diamine]
0.01 to 0.1 | Nc1cc(-n2c(C3CC3)nc3ccc(Cl)cc32)nc(Nc2ccc(OC(F)F)cc2)n1 [Cpd 93, 6-(6-chloro-2-cyclopropyl-1H-benzimidazol-1-yl)-N^2-[4-(difluoromethoxy)phenyl]pyrimidine-2,4-diamine]
0.01 to 0.1 | Cc1nc2ccccc2n1-c1nc(Nc2ccc(OC(F)F)cc2)nc(N)c1F [Cpd 94, N^2-[4-(difluoromethoxy)phenyl]-5-fluoro-6-(2-methyl-1H-benzimidazol-1-yl)pyrimidine-2,4-diamine]
0.01 to 0.1 | CCc1nc2ccccc2n1-c1cc(N)nc(Nc2ccc(C(F)(F)F)nc2)n1 [Cpd 95, 6-(2-ethyl-1H-benzimidazol-1-yl)-N^2-[6-(trifluoromethyl)pyridin-3-yl]pyrimidine-2,4-diamine]
0.1 to 3 | CCc1nc2cc(Cl)ccc2n1-c1cc(N)nc(Nc2ccc(C(F)(F)F)cc2)n1 [Cpd 96, 6-(5-chloro-2-ethyl-1H-benzimidazol-1-yl)-N^2-[4-(trifluoromethyl)phenyl]pyrimidine-2,4-diamine]
0.01 to 0.1 | CCc1nc2ccc(Cl)cc2n1-c1cc(N)nc(Nc2ccc(C(F)(F)F)cc2)n1 [Cpd 97, 6-(6-chloro-2-ethyl-1H-benzimidazol-1-yl)-N^2-[4-(trifluoromethyl)phenyl]pyrimidine-2,4-diamine]
0.01 to 0.1 | Nc1cc(-c2c(C(F)(F)F)nn3ccccc23)nc(Nc2ccc(C(F)(F)F)cc2)n1 [Cpd 98, N^2-[4-(trifluoromethyl)phenyl]-6-[2-(trifluoromethyl)pyrazolo[1,5-a]pyridin-3-yl]pyrimidine-2,4-diamine]
0.001 to 0.01 | Cc1nc2ncc(F)cc2n1-c1cc(N)nc(Nc2ccc(C(F)(F)F)cc2)n1 [Cpd 100, 6-(6-fluoro-2-methyl-1H-imidazo[4,5-b]pyridin-1-yl)-N^2-[4-(trifluoromethyl)phenyl]pyrimidine-2,4-diamine]
0.001 to 0.01 | Cc1nc2ncc(F)cc2n1-c1cc(N)nc(Nc2ccc(OC(F)F)cc2)n1 [Cpd 101, N^2-[4-(difluoromethoxy)phenyl]-6-(6-fluoro-2-methyl-1H-imidazo[4,5-b]pyridin-1-yl)pyrimidine-2,4-diamine]
0.01 to 0.1 | Cc1nc2cc(F)ccc2n1-c1cc(N)nc(Nc2ccc(C(F)(F)F)cc2)n1 [Cpd 102, 6-(5-fluoro-2-methyl-1H-benzimidazol-1-yl)-N^2-[4-(trifluoromethyl)phenyl]pyrimidine-2,4-diamine]
0.01 to 0.1 | CCc1nc2cc(F)ccc2n1-c1cc(N)nc(Nc2ccc(C(F)(F)F)cc2)n1 [Cpd 104, 6-(2-ethyl-5-fluoro-1-benzimidazol-1-yl)-N^2-[4-(trifluoromethyl)phenyl]pyrimidine-2,4-diamine]
0.1 to 3 | Nc1cc(-c2c(C3CC3)nn3ccc(F)cc23)nc(Nc2ccc(C(F)(F)F)cc2)n1 [Cpd 107, 6-(2-cyclopropyl-5-fluoropyrazolo[1,5-a]pyridin-3-yl)-N^2-[4-(trifluoromethyl)phenyl]pyrimidine-2,4-diamine]
